PubChem BioAssay AID248 (DTP/NCI, 2004)
Where “and” joins values, the source holds several entries; their conditions need not be identical. Equal entries are not always repeated. Toxic doses and inconclusive results are not listed. No stated cut-off is given here; in the data, active means T/C of 150% or more; inactive means T/C below 125%. Square brackets hold non-standard residues; d marks the D form. Peptide text beside a SMILES is read from it. * marks the point of attachment. ξ: configuration not given here. ξF = NC(Cc1ccccc1)C(=O)O; Cbz = O=C(OCc1ccccc1)*

Test system: L1210 leukemia ip in BDF1 mice, survival T/C
Experiment: NCI In Vivo Anticancer Drug Screen. Data for tumor model L1210 Leukemia (intraperitoneal) in B6D2F1 (BDF1) mice
Settings: endpoint: mean survival time, higher = longer survival
Procedure, shortened: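 Mice bearing the transplanted tumor received compound or vehicle. Survival of the treated group was divided by that of the vehicle-treated control group to give the ratio.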

[1] = dose: 100.0 mg/kg/injection, schedule: Q01DX009 (ip), vehicle: saline with Tween-80
[2] = dose: 100.0 mg/kg/injection, schedule: Q04DX003 (ip), vehicle: saline with Tween-80
[3] = dose: 200.0 mg/kg/injection, schedule: Q04DX003 (ip), vehicle: saline with Tween-80
[4] = dose: 400.0 mg/kg/injection, schedule: Q04DX003 (ip), vehicle: saline with Tween-80
[5] = dose: 100.0 mg/kg/injection, schedule: Q01DX001 (ip), vehicle: Klucel (hydroxypropylcellulose) (HPC)
[6] = dose: 200.0 mg/kg/injection, schedule: Q01DX001 (ip), vehicle: Klucel (hydroxypropylcellulose) (HPC)
[7] = dose: 400.0 mg/kg/injection, schedule: Q01DX001 (ip), vehicle: Klucel (hydroxypropylcellulose) (HPC)
[8] = dose: 50.0 mg/kg/injection, schedule: Q04DX003 (ip), vehicle: Klucel (hydroxypropylcellulose) (HPC)
[9] = dose: 100.0 mg/kg/injection, schedule: Q04DX003 (ip), vehicle: Klucel (hydroxypropylcellulose) (HPC)
[10] = dose: 200.0 mg/kg/injection, schedule: Q04DX003 (ip), vehicle: Klucel (hydroxypropylcellulose) (HPC)
[11] = dose: 100.0 mg/kg/injection, schedule: Q01DX009 (ip), vehicle: Klucel (hydroxypropylcellulose) (HPC)
[12] = dose: 200.0 mg/kg/injection, schedule: Q01DX009 (ip), vehicle: Klucel (hydroxypropylcellulose) (HPC)
[13] = dose: 400.0 mg/kg/injection, schedule: Q04DX003 (ip), vehicle: Klucel (hydroxypropylcellulose) (HPC)
[14] = dose: 400.0 mg/kg/injection, schedule: Q01DX009 (ip), vehicle: Klucel (hydroxypropylcellulose) (HPC)
[15] = dose: 25.0 mg/kg/injection, schedule: Q04DX002 (ip), vehicle: Klucel (hydroxypropylcellulose) (HPC)
[16] = dose: 50.0 mg/kg/injection, schedule: Q04DX002 (ip), vehicle: Klucel (hydroxypropylcellulose) (HPC)
[17] = dose: 100.0 mg/kg/injection, schedule: Q04DX002 (ip), vehicle: Klucel (hydroxypropylcellulose) (HPC)
[18] = dose: 200.0 mg/kg/injection, schedule: Q04DX002 (ip), vehicle: Klucel (hydroxypropylcellulose) (HPC)
[19] = dose: 400.0 mg/kg/injection, schedule: Q04DX002 (ip), vehicle: Klucel (hydroxypropylcellulose) (HPC)
[20] = dose: 25.0 mg/kg/injection, schedule: Q01DX009 (ip), vehicle: saline
[21] = dose: 50.0 mg/kg/injection, schedule: Q01DX009 (ip), vehicle: saline
[22] = dose: 25.0 mg/kg/injection, schedule: Q04DX003 (ip), vehicle: saline
[23] = dose: 50.0 mg/kg/injection, schedule: Q04DX003 (ip), vehicle: saline

Measured: T/C

CCCCCCOc1ccc(N=[N+]([O-])c2ccc(OCCCCCC)cc2)cc1
inactive: dose: 75.0 mg/kg/injection, schedule: Q01DX001 (ip), vehicle: other 91 % of control | dose: 150.0 mg/kg/injection, schedule: Q01DX001 (ip), vehicle: other 91 % of control | dose: 300.0 mg/kg/injection, schedule: Q01DX001 (ip), vehicle: other 87 % of control

CN(C)N=Nc1ccc(Cl)cc1C(N)=O
inactive: [1] 104 % of control | [2] 105 % of control | dose: 200.0 mg/kg/injection, schedule: Q01DX009 (ip), vehicle: saline with Tween-80 110 % of control | [3] 102 % of control | [4] 100 % of control

Cc1cc[n+]([O-])nc1N(C)N
inactive: dose: 50.0 mg/kg/injection, schedule: Q04DX002 (ip), vehicle: saline 101 % of control | dose: 100.0 mg/kg/injection, schedule: Q04DX002 (ip), vehicle: saline 104 % of control | dose: 200.0 mg/kg/injection, schedule: Q04DX002 (ip), vehicle: saline 96 % of control

O=C(O)CC1Sc2ccccc2NC1=O (configuration not stated)
inactive: [5] 105 % of control | [6] 94 % of control | [7] 105 % of control

CCCCNC(=O)NS(=O)(=O)c1ccc(CCl)cc1
inactive: [8] 98 % of control | [9] 102 % of control | [10] 100 % of control

O=C(CNC(=O)OCc1ccccc1)NC(Cc1ccccc1)C(=O)O (stereo not drawn) (Cbz-Gly-[ξF]-OH)
inactive: dose: 50.0 mg/kg/injection, schedule: Q01DX009 (ip), vehicle: Klucel (hydroxypropylcellulose) (HPC) 95 % of control | [8] 93 % of control | [11] 97 % of control | [9] 98 % of control | [12] 93 % of control | [10] 100 % of control

O=C1NCCCC1c1nc2cccc3c2n1CCC3 (configuration not stated)
inactive: [9] 94 % of control | [10] 108 % of control | [13] 97 % of control

O=C(Nc1ccccc1F)Oc1ccc(OCc2ccccc2)cc1
inactive: [11] 101 % of control | [12] 101 % of control | [14] 101 % of control

O=S(=O)(O)c1cc(Cl)c(O)c(Cl)c1
inactive: [11] 95 % of control | [12] 102 % of control | [14] 106 % of control

Sc1c(Cl)c(Cl)c(Cl)c(Cl)c1Cl
inactive: [5] 106 % of control | [11] 93 % of control | [6] 106 % of control | [12] 100 % of control | [7] 104 % of control | [14] 93 % of control

C=CCc1ccc(OC(=O)Nc2ccc(S(=O)(=O)N3CCCCC3)cc2)c(OC)c1
inactive: dose: 12.5 mg/kg/injection, schedule: Q01DX001 (ip), vehicle: other 98 % of control | dose: 25.0 mg/kg/injection, schedule: Q01DX001 (ip), vehicle: other 90 % of control | dose: 50.0 mg/kg/injection, schedule: Q01DX001 (ip), vehicle: other 90 % of control

COC1OC(COS(=O)(=O)c2ccc(C)cc2)C(OC(=O)c2ccccc2)C(OC(=O)c2ccccc2)C1OS(=O)(=O)c1ccc(C)cc1 (configuration not stated)
inactive: [15] 88 % of control | [16] 95 % of control | [17] 88 % of control | [18] 109 % of control and 88 % of control | [19] 109 % of control

Cc1ccccc1C(=O)C(=O)c1ccccc1C
inactive: [11] 95 % of control | [12] 106 % of control | [14] 93 % of control

Nc1ccc(I)cc1C(=O)O
inactive: dose: 50.0 mg/kg/injection, schedule: Q01DX001 (ip), vehicle: saline 103 % of control | dose: 100.0 mg/kg/injection, schedule: Q01DX001 (ip), vehicle: saline 103 % of control | dose: 200.0 mg/kg/injection, schedule: Q01DX001 (ip), vehicle: saline 101 % of control | dose: 400.0 mg/kg/injection, schedule: Q01DX001 (ip), vehicle: saline 97 % of control

O=C(NCCCl)NC(CO)C(=O)O (configuration not stated)
inactive: dose: 100.0 mg/kg/injection, schedule: Q04DX003 (ip), vehicle: saline 98 % of control | dose: 200.0 mg/kg/injection, schedule: Q04DX003 (ip), vehicle: saline 93 % of control | dose: 400.0 mg/kg/injection, schedule: Q04DX003 (ip), vehicle: saline 95 % of control

CCOC(=O)C(NC=O)C(=O)OCC
inactive: [20] 101 % of control | [21] 101 % of control | dose: 100.0 mg/kg/injection, schedule: Q01DX009 (ip), vehicle: saline 101 % of control | dose: 200.0 mg/kg/injection, schedule: Q01DX009 (ip), vehicle: saline 103 % of control | dose: 400.0 mg/kg/injection, schedule: Q01DX009 (ip), vehicle: saline 98 % of control

N#CCC(C#N)N1CCOCC1 (configuration not stated)
inactive: dose: 25.0 mg/kg/injection, schedule: Q01DX009 (ip), vehicle: saline with Tween-80 92 % of control | dose: 50.0 mg/kg/injection, schedule: Q01DX009 (ip), vehicle: saline with Tween-80 104 % of control | [1] 93 % of control | [2] 97 % of control

CC(C)CCCC(C)C1CCC2(C)C3=C(C(=O)CC12C)C1(C)CCC(O)C(C)(C)C1/C(=N\O)C3=O (configuration not stated)
inactive: [2] 94 % of control | [3] 96 % of control | [4] 97 % of control

ClC1=C2C=CC=CC2C(Cl)(c2ccccc2)C2=C1C(Cl)=C1C=CC=CC1C2(Cl)c1ccccc1 (configuration not stated)
inactive: [5] 106 % of control | [6] 101 % of control | [7] 101 % of control

O=C(Cc1ccccc1)NC1=C(Cl)C(=O)c2ccccc2C1=O
inactive: [2] 89 % of control | [3] 101 % of control | [4] 88 % of control

COC(=O)c1ccc(OC(=O)Nc2ccc(Br)cc2)cc1
inactive: [11] 102 % of control | [12] 92 % of control | [14] 92 % of control

CC(C)(O)CNS(=O)(=O)c1ccc(Br)cc1
inactive: [11] 105 % of control | [12] 101 % of control

O=C(O)c1ccc(Nc2ccccc2)cc1
inactive: [2] 103 % of control | [3] 90 % of control | [4] 90 % of control

CC(C)=CCCOC(N)=O
inactive: [2] 104 % of control | [3] 102 % of control | [4] 98 % of control

Cc1ccccc1N(C)C(=S)c1ccc(Cl)cc1
inactive: [5] 105 % of control | [9] 92 % of control | [6] 102 % of control | [10] 94 % of control | [7] 110 % of control | [13] 96 % of control

O=c1[nH]cnc2ccc([N+](=O)[O-])cc12
inactive: [8] 101 % of control | [9] 103 % of control

CC1c2c(c(-c3ccccc3)c3ccccc3c2-c2ccccc2)S1(=O)=O (configuration not stated)
inactive: [15] 99 % of control | [16] 96 % of control | [17] 94 % of control and 99 % of control and 111 % of control | [18] 94 % of control and 99 % of control and 114 % of control | [19] 99 % of control and 111 % of control

O=C(Nc1cccc(F)c1)Nc1ccccc1C(F)(F)F
inactive: [11] 97 % of control | [12] 91 % of control | [14] 94 % of control

CNC(=O)Oc1cccc(NC(=O)OCC(C)(C)C)c1
inactive: [2] 96 % of control | [3] 102 % of control | [4] 97 % of control

O=C(O)c1ccccc1Oc1ccccc1
inactive: dose: 100.0 mg/kg/injection, schedule: Q01DX001 (ip), vehicle: saline with Tween-80 94 % of control | dose: 200.0 mg/kg/injection, schedule: Q01DX001 (ip), vehicle: saline with Tween-80 91 % of control | dose: 400.0 mg/kg/injection, schedule: Q01DX001 (ip), vehicle: saline with Tween-80 91 % of control

[NH-]C(Cc1ccccc1)C(=O)O.[NH-]C(Cc1ccccc1)C(=O)O.[Ni+2] (configuration not stated)
inactive: dose: 12.5 mg/kg/injection, schedule: Q04DX003 (ip), vehicle: saline 95 % of control | [22] 95 % of control | [23] 98 % of control

CC(C(=O)N1c2ccccc2Sc2ccccc21)[N+]1(C)CCCC1 (configuration not stated)
inactive: dose: 3.12 mg/kg/injection, schedule: Q01DX009 (ip), vehicle: saline 97 % of control | dose: 6.25 mg/kg/injection, schedule: Q01DX009 (ip), vehicle: saline 103 % of control | dose: 12.5 mg/kg/injection, schedule: Q01DX009 (ip), vehicle: saline 102 % of control | [20] 102 % of control | [22] 107 % of control | [21] 91 % of control | [23] 91 % of control
